Assay results from paper PMC13327620, “A Deep‐Red‐Absorbing Osmium(II) Complex as a Photosensitizer for Photodynamic Therapy Inducing Immunogenic Cell Death” (Angewandte Chemie (International Ed. in English), 2026).
Like-named read-outs stand apart in the source and are kept apart here.

Tests used:
[1] = tested on: mouse colon adenocarcinoma (CT-26) cells; assay: Resazurin cell viability assay, (photo)cytotoxicity under hypoxia (1% O2); assay type: cell-based
Experimental: (§1) (100 U ml−1), streptomycin (100 U ml−1), and 1% L-glutamine. The murine fibrosarcom a (MCA205) cells were cultured in RPMI 1640 medium with 10% fetal bovine serum (FBS), penicillin (100 U ml−1), streptomycin (100 U ml−1), and 1% L-glutamine. All cells were incubated at 37 °C in a humidified atmosphere with 5 % CO2.
Normoxia. The in vitro viability of cells exposed to the complexes was determined using a resazurin assay. C ells were seeded in 96-well plates at densities of 4,000 cells/well for CT26, MC A205 and U-87 MG cells, and 8,000 cells/well for MRC-5 and NIH/3T3 cells. A fter 24 h of growth at 37 °C wit h 5% CO2, the medium was replaced with fresh medium containing various concentrations of the compounds . […] After a 40- h r ecov ery period, a f reshly pr epar ed resazurin solution (0.2 mg/mL) was added to each well, and the plates were left in the dark for 4 h before analysis on a B i o Te k Cytation 5 Cell Imaging Multimode Reader (Agil ent Technologies). […]
Non-irradiat ed plates were similarly refreshed with medium and k ept in th e d ark fo r the same duration. After a 40 -h recovery period, a f res hly prepar ed resazurin solution (0.2 mg/mL) was added to each well, and the plates were left in the dark for 4 h before analysis on a BioTek Cytation 5 Cell Imaging Multimode Reader (Agilent […]

[2] = tested on: mouse fibrosarcoma (MCA205) cells; assay: Resazurin cell viability assay, phototoxicity; assay type: cell-based; conditions: MCA-205, light or radiation study, 1 h, MCA205, 740 nm, 60 min, 12.60 J/cm2
Experimental: as §1
Normoxia. The in vitro viability of cells exposed to the complexes was determined using a resazurin assay. C ells were seeded in 96-well plates at densities of 4,000 cells/well for CT26, MC A205 and U-87 MG cells, and 8,000 cells/well for MRC-5 and NIH/3T3 cells. A fter 24 h of growth at 37 °C wit h 5% CO2, the medium was replaced with fresh medium containing various concentrations of the compounds . Following a 4- h incubation in the dark, the medium was refres hed , and the plates were exposed to irradiation usinga LUM OS -BIO photoreactor (At las Photonics).N on- ir rad iated plates were similarly refr eshed with medium and kept in the dark for the same duration. After a 40- h r ecov ery period, a f reshly pr epar ed resazurin solution (0.2 mg/mL) was added to each well, and the plates were left in the dark for 4 h before analysis on a B i o Te k Cytation 5 Cell Imaging Multimode Reader (Agil ent Technologies). […]

IFN‐γ and IL‐17A = assay: Cytokine assay (ELISA) in serum after vaccination; assay type: in vivo, BALB/c mice; conditions: day 7, compared to Control and Cisplatin groups
Text: Encouraged by the excellent performance of Os2 in inducing ICD both in vitro and in vivo, we decided to further evaluate the antitumor immune response following vaccination. A key feature of ICD is its ability to initiate antigen‐specific adaptive immune responses. To assess this, we measured the immune cell response in the spleens and the cytokine levels in the serum of mice 7 days after vaccination (Figures 6A and S28).
PerCp Cy5.5 (Biolegend, Catalog no.100217, cl one 17A2), anti -CD4- Kiravia 520 (Biolegend, Catalog no. 100477, clone GK1.5), anti-CD8a-BUV496 (Ther mo F i s h er […]
transcription factor staini ng, the cells were treat ed with True- Nuclear™ Transcription Factor Buffer Set (Biolegend, Catalog no. 424401) after surface staining an d re-stained with fluorescen ce-labeled anti-IFNγ-PE (Biolegend, Catalog no. 505807, clone XMG1.2), anti-FoxP3- BV421 (Biolegend, Catalog no.126419, clone MF-14) and Zombie NIR™Fixable Viability Kit( Biolegend,Catalog no.423105).
Serum samples were obt ained from the mice on day 7 after treatment. Cytokine was detected using ELISA kits according to the manufacturer ’s instructions: IFN-γ (Biolegend, Catalog no. 430807) and IL -17A ( Bi olegend, Catalog no.432507).
All the analysis data are given as mean ± SEM. […]

C=Cc1c(C)c2cc3nc(c(CC(=O)O)c4[nH]c(cc5nc(cc1[nH]2)C(C)=C5CC)c(C)c4C(=O)O)[C@@H](CCC(=O)O)[C@@H]3C [Ce6, chlorin e6]
IC50 ([1]; CT26, CT-26, hypoxia (1% O2), dark, read-out: IC50 Dark): > 100 µM
IC50 ([1]; CT26, light or radiation study, 1 h, CT-26, hypoxia (1% O2), 740 nm, 60 min, 12.60 J/cm2, read-out: IC50 740 nm): 5.63 ± 0.41 µM
IC50 [2]: 1.77 ± 0.38 µM
IFN‐γ level in serum (IFN‐γ and IL‐17A): significant increase
IL‐17A level in serum (IFN‐γ and IL‐17A): significant increase
